{"source": "patent US9005898B2", "about": "“Method for controlling hair growth, method for selecting or evaluating hair growth control agent, and hair growth suppression agent” (Kao Corporation, priority 2010, dated 2015)", "origin": "cited, not measured here", "test_system": "human hair follicle", "details": "in a dose-dependent manner; Patent Document 7", "data": [{"molecule": "O=CN1CC/C(=C\\c2ccc3c(c2)OCO3)C1=O", "note": "[KNK437]", "values": [{"measurement": "growth of the human hair follicle", "result": "reduced"}]}]}
